How the values were obtained:
[1] = target: PKMYT1 (Homo sapiens (Human), UniProt Q99640); assay: In vitro assay: kinase binding to immobilized ligand, captured kinase measured by qPCR
[2] = target: LCK (Homo sapiens (Human), UniProt P06239); assay: as above
Excerpt: Example B-1: In Vitro Assay
Compounds that bind the kinase active site and directly (sterically) or indirectly (allosterically) prevent kinase binding to an immobilized ligand and reduce the amount of kinase captured on the solid support. Screening “hits” were identified by measuring the amount of kinase captured in test versus control samples by using a quantitative, precise and ultra-sensitive qPCR method that detect the associated DNA label. In a similar manner, dissociation constants (Kd's) for test compound-kinase interactions were calculated by measuring the amount of kinase captured on the solid support as a function of the test compound concentration.

LCK, sequence (P06239 whole entry): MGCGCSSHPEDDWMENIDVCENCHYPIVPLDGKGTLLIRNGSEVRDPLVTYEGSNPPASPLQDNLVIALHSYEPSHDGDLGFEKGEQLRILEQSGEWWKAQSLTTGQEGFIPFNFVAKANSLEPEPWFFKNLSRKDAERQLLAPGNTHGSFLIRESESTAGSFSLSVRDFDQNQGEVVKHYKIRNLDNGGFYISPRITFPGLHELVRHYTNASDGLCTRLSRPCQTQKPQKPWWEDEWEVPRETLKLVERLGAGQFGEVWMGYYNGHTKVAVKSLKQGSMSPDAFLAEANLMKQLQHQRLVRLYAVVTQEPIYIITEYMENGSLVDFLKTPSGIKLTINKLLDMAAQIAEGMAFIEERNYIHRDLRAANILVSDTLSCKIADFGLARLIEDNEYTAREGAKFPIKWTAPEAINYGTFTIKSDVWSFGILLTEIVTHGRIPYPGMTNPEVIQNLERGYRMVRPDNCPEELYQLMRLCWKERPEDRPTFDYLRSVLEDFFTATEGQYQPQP
PKMYT1, sequence (Q99640 whole entry): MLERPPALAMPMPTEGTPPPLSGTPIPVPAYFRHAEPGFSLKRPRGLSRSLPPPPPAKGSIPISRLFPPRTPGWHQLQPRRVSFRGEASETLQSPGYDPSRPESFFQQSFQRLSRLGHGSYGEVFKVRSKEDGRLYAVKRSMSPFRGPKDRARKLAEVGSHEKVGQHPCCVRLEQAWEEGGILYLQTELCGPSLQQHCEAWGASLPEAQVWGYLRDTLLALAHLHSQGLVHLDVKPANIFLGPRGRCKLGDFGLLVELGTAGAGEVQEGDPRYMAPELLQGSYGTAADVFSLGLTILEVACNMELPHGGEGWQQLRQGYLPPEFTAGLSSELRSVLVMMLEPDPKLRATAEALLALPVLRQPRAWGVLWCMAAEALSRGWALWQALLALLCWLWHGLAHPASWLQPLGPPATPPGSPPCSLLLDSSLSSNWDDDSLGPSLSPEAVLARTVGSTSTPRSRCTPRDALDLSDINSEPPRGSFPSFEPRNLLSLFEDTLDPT

IC50 [1] | IC50 [2] | SMILES
< 50 nM | 100 to 1000 nM | Cc1ncc2c(C(N)=O)c(N)n(-c3c(C)cc(F)c(O)c3C)c2n1 [Compound 602, 6-amino-7-(4-fluoro-3-hydroxy-2,6-dimethyl-phenyl)-2-methyl-pyrrolo[2,3-d]pyrimidine-5-carboxamide]
< 50 nM | < 50 nM | Cc1cc(F)c(O)c(C)c1-n1c(N)c(C(N)=O)c2cc(Cl)cnc21 [Compound 603, 2-amino-5-chloro-1-(4-fluoro-3-hydroxy-2,6-dimethyl-phenyl)pyrrolo[2,3-b]pyridine-3-carboxamide]
< 50 nM | < 50 nM | CCc1ncc2c(C(N)=O)c(N)n(-c3c(C)ccc(O)c3C)c2c1F [Compound 604, 2-amino-6-ethyl-7-fluoro-1-(3-hydroxy-2,6-dimethyl-phenyl)pyrrolo[3,2-c]pyridine-3-carboxamide]
< 50 nM | < 50 nM | Cc1ccc(O)c(C)c1-n1c(N)c(C(N)=O)c2cnc(C3CC3)c(F)c21 [Compound 605, 2-amino-6-cyclopropyl-7-fluoro-1-(3-hydroxy-2,6-dimethylphenyl)-1H-pyrrolo[3,2-c]pyridine-3-carboxamide]
< 50 nM | < 50 nM | Cc1ccc(O)c(C)c1-n1c(N)c(C(N)=O)c2cnc(CCc3cscn3)c(F)c21 [Compound 638]
< 50 nM | < 50 nM | Cc1ccc(O)c(C)c1-n1c(N)c(C(N)=O)c2cnc(CCc3cncs3)c(F)c21 [Compound 642]
50 to 100 nM | < 50 nM | Cc1ccc(O)c(C)c1-n1c(N)c(C(N)=O)c2cnc(C#CC(F)(F)F)nc21 [Compound 648]
< 50 nM | < 50 nM | Cc1ccc(O)c(C)c1-n1c(N)c(C(N)=O)c2cnc(CCc3nccs3)c(F)c21 [Compound 649]
< 50 nM | < 50 nM | Cc1ccc(O)c(C)c1-n1c(N)c(C(N)=O)c2cnc(/C=C/C3CC3)nc21 [Compound 651]
< 50 nM | < 50 nM | CCc1c(O)cc(F)c(C)c1-n1c(N)c(C(N)=O)c2cnc(C)nc21 [Compound 659]
< 50 nM | < 50 nM | Cc1ccc(O)c(C)c1-n1c(N)c(C(N)=O)c2cnc(C3CC3)c(C#N)c21 [Compound 662]
< 50 nM | < 50 nM | Cc1c(O)cc(F)c(C)c1-n1c(N)c(C(N)=O)c2cnc(C3CC3)c(C#N)c21 [Compound 663, 2-amino-7-cyano-6-cyclopropyl-1-(3-fluoro-5-hydroxy-2,6-dimethyl-phenyl)pyrrolo[3,2-c]pyridine-3-carboxamide]
< 50 nM | < 50 nM | CCc1c(O)cc(F)c(C)c1-n1c(N)c(C(N)=O)c2cnc(C3CC3)c(C#N)c21 [Compound 673, 2-amino-7-cyano-6-cyclopropyl-1-(2-ethyl-5-fluoro-3-hydroxy-6-methyl-phenyl)pyrrolo[3,2-c]pyridine-3-carboxamide]
> 1000 nM | 100 to 1000 nM | Cc1cc2c(C(N)=O)c(N)n(-c3c(C)cc4c(c3C)OCC4)c2nc1C [Compound 675]
> 1000 nM | > 1000 nM | Cc1ncc2c(C(N)=O)c(N)n(-c3c(C)cc4[nH]c(=O)oc4c3C)c2n1 [Compound 680]
